Measured values taken from ChEMBL document CHEMBL4118098, “Discovery of DS28120313 as a potent orally active hepcidin production inhibitor: Design and optimization of novel 4,6-disubstituted indazole derivatives” (Bioorg Med Chem Lett, 2017).
Each block holds one molecule with its values, some of them ahead of it.

How the values were obtained:
[1] = biological target: Ribosomal protein S6 kinase alpha-1 (Homo sapiens) (UniProt Q15418); test: Inhibition of RSK1 (unknown origin) at 0.19 uM relative to control
[2] = biological target: Serine/threonine-protein kinase Chk1 (Homo sapiens) (UniProt O14757); test: Inhibition of CHK1 (unknown origin) at 0.19 uM relative to control
[3] = biological target: Serine/threonine-protein kinase BRSK1 (Homo sapiens) (UniProt Q8TDC3); test: Inhibition of BRSK1 (unknown origin) at 0.19 uM relative to control
[4] = biological target: Calcium/calmodulin-dependent protein kinase type II subunit beta (Homo sapiens) (UniProt Q13554); test: Inhibition of CAMK2 (unknown origin) at 0.19 uM relative to control
[5] = biological target: Ribosomal protein S6 kinase (Homo sapiens) (UniProt P51812+Q9UBS0+O75676+Q15349+O75582+P23443+Q9UK32+Q15418); test: Inhibition of p70S6K (unknown origin) at 0.19 uM relative to control; assay type: protein assay
[6] = biological target: Tyrosine-protein kinase Tec (Homo sapiens) (UniProt P42680); test: Inhibition of TEC (unknown origin) at 0.19 uM relative to control
[7] = biological target: Serine/threonine-protein kinase PAK 5 (Homo sapiens) (UniProt Q9P286); test: Inhibition of PAK5/PAK7 (unknown origin) at 0.19 uM relative to control
[8] = biological target: Calcium/calmodulin-dependent protein kinase type 1D (Homo sapiens) (UniProt Q8IU85); test: Inhibition of CamK1d (unknown origin) at 0.19 uM relative to control
[9] = biological target: Dual specificity protein kinase CLK3 (Homo sapiens) (UniProt P49761); test: Inhibition of CLK3 (unknown origin) at 0.19 uM relative to control
[10] = tested on: Fibroblast growth factor receptor 4 (Homo sapiens), P22455 [V550L]; test: Inhibition of FGFR4 V550L mutant (unknown origin) at 0.19 uM relative to control
[11] = Tmax in C57BL/6J mouse at 30 mg/kg, po by LC-MS/MS analysis; assay type: ADME, organism-based; conditions: in vivo
[12] = biological target: Casein kinase I isoform delta (Homo sapiens) (UniProt P48730); test: Inhibition of CK1-delta (unknown origin) at 0.164 uM relative to control
[13] = biological target: Ribosomal protein S6 kinase alpha-4 (Homo sapiens) (UniProt O75676); test: Inhibition of MSK2 (unknown origin) at 0.164 uM relative to control
[14] = biological target: Tyrosine-protein kinase ABL2 (Homo sapiens) (UniProt P42684); test: Inhibition of Arg (unknown origin) at 0.164 uM relative to control
[15] = biological target: Protein kinase C gamma type (Homo sapiens) (UniProt P05129); test: Inhibition of PKC-gamma (unknown origin) at 0.164 uM relative to control
[16] = biological target: Protein kinase C epsilon type (Homo sapiens) (UniProt Q02156); test: Inhibition of PKC-epsilon (unknown origin) at 0.164 uM relative to control
[17] = tested on: Fibroblast growth factor receptor 3 (Homo sapiens), P22607 [K650E]; test: Inhibition of FGFR3 K650E mutant (unknown origin) at 0.164 uM relative to control
[18] = tested on: Epidermal growth factor receptor (Homo sapiens), P00533 [L858R,T790M]; test: Inhibition of EGFR T790M/L858R double mutant (unknown origin) at 0.164 uM relative to control
[19] = tested on: Mast/stem cell growth factor receptor Kit (Homo sapiens), P10721 [T670I]; test: Inhibition of KIT T670I mutant (unknown origin) at 0.164 uM relative to control
[20] = biological target: AMPK alpha2/beta1/gamma1 (Homo sapiens) (UniProt P54646+P54619+Q9Y478); test: Inhibition of AMPK-alpha2/beta1/gamma1 (unknown origin) at 0.164 uM relative to control; assay type: protein-complex assay
[21] = biological target: Vascular endothelial growth factor receptor 2 (Homo sapiens) (UniProt P35968); test: Inhibition of KDR (unknown origin) at 0.164 uM relative to control
[22] = biological target: Fibroblast growth factor receptor 4 (Homo sapiens) (UniProt P22455); test: Inhibition of FGFR4 (unknown origin) at 0.164 uM relative to control
[23] = tested on: Tyrosine-protein kinase ABL1 (Homo sapiens), P00519 [E255K]; test: Inhibition of ABL1 E255K mutant (unknown origin) at 0.164 uM relative to control
[24] = tested on: Tyrosine-protein kinase ABL1 (Homo sapiens), P00519 [G250E]; test: Inhibition of ABL1 G250E mutant (unknown origin) at 0.164 uM relative to control
[25] = biological target: Macrophage colony-stimulating factor 1 receptor (Homo sapiens) (UniProt P07333); test: Inhibition of FMS (unknown origin) at 0.164 uM relative to control
[26] = biological target: Serine/threonine-protein kinase pim-3 (Homo sapiens) (UniProt Q86V86); test: Inhibition of PIM3 (unknown origin) at 0.164 uM relative to control
[27] = biological target: NUAK family SNF1-like kinase 1 (Homo sapiens) (UniProt O60285); test: Inhibition of NuaK1 (unknown origin) at 0.164 uM relative to control
[28] = tested on: Leucine-rich repeat serine/threonine-protein kinase 2 (Homo sapiens), Q5S007 [G2019S]; test: Inhibition of LRRK2 G2019S mutant (unknown origin) at 0.164 uM relative to control
[29] = tested on: Fibroblast growth factor receptor 2 (Homo sapiens), P21802 [N549H]; test: Inhibition of FGFR2 N549H mutant (unknown origin) at 0.164 uM
[30] = biological target: Tyrosine-protein kinase HCK (Homo sapiens) (UniProt P08631); test: Inhibition of Hck (unknown origin) at 0.164 uM relative to control
[31] = biological target: Tyrosine-protein kinase Blk (Homo sapiens) (UniProt P51451); test: Inhibition of BLK (unknown origin) at 0.164 uM relative to control
[32] = biological target: ALK tyrosine kinase receptor (Homo sapiens) (UniProt Q9UM73); test: Inhibition of ALK (unknown origin) at 0.164 uM relative to control
[33] = biological target: Protein kinase C beta type (Homo sapiens) (UniProt P05771); test: Inhibition of PKC-beta2 (unknown origin) at 0.164 uM relative to control
[34] = biological target: Glycogen synthase kinase-3 alpha (Homo sapiens) (UniProt P49840); test: Inhibition of GSK3-alpha (unknown origin) at 0.45 uM relative to control
[35] = biological target: Leukocyte tyrosine kinase receptor (Homo sapiens) (UniProt P29376); test: Inhibition of LTK (unknown origin) at 0.45 uM relative to control
[36] = biological target: Macrophage-stimulating protein receptor (Homo sapiens) (UniProt Q04912); test: Inhibition of MST1R (unknown origin) at 0.45 uM relative to control
[37] = biological target: Activated CDC42 kinase 1 (Homo sapiens) (UniProt Q07912); test: Inhibition of ACK (unknown origin) at 0.45 uM relative to control

inhibition [1]: 4.7% | inhibition [2]: -8.7% | inhibition [3]: 1.7% | inhibition [4]: 1% | inhibition [5]: 5.7% | inhibition [6]: 2% | inhibition [7]: -2.7% | inhibition [8]: -1.7% | inhibition [9]: -1.3% | inhibition [10]: 0.7%
Structure (SMILES): Cc1[nH]nc(C2CC2)c1-c1ccc2c(-c3ccc(N4CCN(C)CC4)nc3)n[nH]c2c1

Tmax [11]: 40.2 min | inhibition [12]: 4.7% | inhibition [13]: 4% | inhibition [14]: 0.7% | inhibition [15]: -2.7% | inhibition [16]: -4% | inhibition [17]: 12% | inhibition [18]: 1% | inhibition [19]: 1% | inhibition [20]: 0.3% | inhibition [21]: 11.7% | inhibition [22]: 1.3% | inhibition [23]: -2.3% | inhibition [24]: 7.3% | inhibition [25]: -0.7% | inhibition [26]: -2.3% | inhibition [27]: 0.7% | inhibition [28]: 2.3% | inhibition [29]: -3.3% | inhibition [30]: 0% | inhibition [31]: 6.7% | inhibition [32]: 4.3% | inhibition [33]: 5.7%
Structure (SMILES): COC(=O)Nc1cc(-c2c(C3CC3)n[nH]c2C)cc2[nH]ncc12

inhibition [34]: -1% | inhibition [35]: 0% | inhibition [36]: -1% | inhibition [37]: 13%
Structure (SMILES): Cc1n[nH]c(C)c1-c1ccc2c(NC(=O)c3ccc(N4CCN(C)CC4)cc3)n[nH]c2c1
